In experiment [1] the test system is rat pituitary cells in tissue culture. Description: Bioassay of hGRF analogs: GH release from cultured pituitary cells. The format is cell-based. As to conditions: for Dose Needed to Release 2.01 μg/ml of GH (ED50 value for hGRF) / Maximum GH Released / Relative Maximum Activity (% of hGRF): from curves generated by ALLFIT; for GH release at dosages comparable to native hGRF: referring to Table 1; for Potency: (ED50 of hGRF)/(Dose required to give same response as ED50 of hGRF): relative to hGRF(1-44)-NH2 = 100. An excerpt: The assay for biological activity, which is based on the ability to stimulate release of growth hormone in rat pituitary cells in tissue culture, has been described in detail (Culler, M. D.; Kenjo, T.: Obara, N.; Arimuar, A., Stimulation of cAMP. Accumulation by Human Pancreatic GH-Releasing Factor-(1-44). Am. J. Physiol. 1984, 247 (Endocrinol.Metab.10), E609-E615.
ALLFIT, the 4-parameter logistic curve fitting program available from the Biomedical Computer Technology Information Center, Vanderbilt Medical Center, Nashville TN, was used to determine ED50 and maximal stimulated values from the data. In several instances, the amount of GH released reached a maximum value and decreased with further increasing doses of the hGRF analogs. To simplify the data analysis, these values were not used in the calculations. The calculated maximal responses, the doses of the analog required to release the amount of GH released at the ED50 of the standard (hGRF) and the potencies of the analogs relative to hGRF, are given in Table 2. Generally all novel analogs were fully active and were able to stimulate the release of growth hormone with maximal values of GH release being within 80% of the value for natural hGRF.

Another experiment relates to GH releasing activity. As to conditions: reported by Rivier et al.; cited from earlier work.

Square brackets hold non-standard residues; d marks the D form. Ends that are not written are not given here. Peptide text beside a SMILES is read from it. Nle = CCCC[C@H](N)C(=O)O

Consider `CCCC[C@H](NC(=O)[C@@H](NC(=O)[C@H](CC(N)=O)NC(=O)[C@H](CCC(N)=O)NC(=O)[C@H](CC(C)C)NC(=O)[C@H](CC(C)C)NC(=O)[C@H](CCCCN)NC(=O)[C@H](CCCNC(=N)N)NC(=O)[C@H](C)NC(=O)[C@H](CO)NC(=O)[C@H](CC(C)C)NC(=O)[C@H](CCC(N)=O)NC(=O)CNC(=O)[C@H](CC(C)C)NC(=O)[C@@H](NC(=O)[C@H](CCCCN)NC(=O)[C@H](CCCNC(=N)N)NC(=O)[C@H](Cc1ccc(O)cc1)NC(=O)[C@H](CO)NC(=O)[C@H](CC(=O)O)NC(=O)[C@@H](NC(=O)[C@H](Cc1ccccc1)NC(=O)[C@@H](NC(=O)[C@H](C)NC(=O)[C@H](CC(=O)O)NC(=O)[C@H](C)NC(=O)[C@@H](N)Cc1ccc(O)cc1)[C@@H](C)CC)[C@@H](C)O)C(C)C)[C@@H](C)CC)C(=O)N[C@@H](CO)C(=O)N[C@@H](CCCNC(=N)N)C(=O)N[C@@H](CCC(N)=O)C(=O)N[C@@H](CCC(N)=O)C(N)=O` [[Asp^8,Asn^25,Nle^27], [Asp^8,Asn^25,Nle^27]-hGRF(1-31)--NH2] (H-YADAIFTDSYRKVLGQLSARKLLQNI[Nle]SRQQ-NH2), for which the “GH Released (mean ± (S.E.))” value was 2.86 (0.07) μg/mL in experiment [1] (Dose 1 × 10^-6 M); 2.93 (0.17) μg/mL in experiment [1] (Dose 1 × 10^-7 M); 2.86 (0.08) μg/mL in experiment [1] (Dose 1 × 10^-8 M); 2.59 (0.17) μg/mL in experiment [1] (Dose 1 × 10^-9 M); 0.96 (0.07) μg/mL in experiment [1] (Dose 1 × 10^-10 M); 0.74 (0.09) μg/mL in experiment [1] (Dose 1 × 10^-11 M). In addition, in experiment [1], the “Dose Needed to Release 2.01 μg/ml of GH (ED50 value for hGRF)” value (shortened to “Dose Needed to Release 2.01 μg/ml of GH”) is listed as 0.42 nM. Further, the “Maximum GH Released” value in experiment [1] was found to be 2.89 µg/mL. In addition, the “Relative Maximum Activity (% of hGRF)” value in experiment [1] stood at 87%. Besides, the “GH release at dosages comparable to native hGRF” value in experiment [1] is given as “induced GH release in dosages comparable to those for native hGRF”. Further, in experiment [1], the “Potency: (ED50 of hGRF)/(Dose required to give same response as ED50 of hGRF)” value amounted to 76%.
As for `CCCC[C@H](NC(=O)[C@@H](NC(=O)[C@H](CC(=O)O)NC(=O)[C@H](CCC(N)=O)NC(=O)[C@H](CC(C)C)NC(=O)[C@H](CC(C)C)NC(=O)[C@H](CCCCN)NC(=O)[C@H](CCCNC(=N)N)NC(=O)[C@H](C)NC(=O)[C@H](CO)NC(=O)[C@H](CC(C)C)NC(=O)[C@H](CCC(N)=O)NC(=O)CNC(=O)[C@H](CC(C)C)NC(=O)[C@@H](NC(=O)[C@H](CCCCN)NC(=O)[C@H](CCCNC(=N)N)NC(=O)[C@H](Cc1ccc(O)cc1)NC(=O)[C@H](CO)NC(=O)[C@H](CC(=O)O)NC(=O)[C@@H](NC(=O)[C@H](Cc1ccccc1)NC(=O)[C@@H](NC(=O)[C@H](C)NC(=O)[C@H](CC(=O)O)NC(=O)[C@H](C)NC(=O)[C@@H](N)Cc1ccc(O)cc1)[C@@H](C)CC)[C@@H](C)O)C(C)C)[C@@H](C)CC)C(=O)N[C@@H](CO)C(=O)N[C@@H](CCCNC(=N)N)C(=O)N[C@@H](CCC(N)=O)C(=O)N[C@@H](CCC(N)=O)C(N)=O` [[Asp^8,Nle^27], [Asp^8,Nle^27]-hGRF(1-31)---NH2] (H-YADAIFTDSYRKVLGQLSARKLLQDI[Nle]SRQQ-NH2), the “GH Released (mean ± (S.E.))” value in experiment [1] (Dose 1 × 10^-6 M) is 3.17 (0.24) μg/mL; in experiment [1] (Dose 1 × 10^-7 M) it was 3.52 (0.22) μg/mL; in experiment [1] (Dose 1 × 10^-8 M), 3.59 (0.17) μg/mL; in experiment [1] (Dose 1 × 10^-9 M), 2.69 (0.12) μg/mL; in experiment [1] (Dose 1 × 10^-10 M), 1.18 (0.10) μg/mL; in experiment [1] (Dose 1 × 10^-11 M) it was 0.61 (0.03) μg/mL. In experiment [1], the “Dose Needed to Release 2.01 μg/ml of GH” value worked out at 0.39 nM. Besides, the “Maximum GH Released” value in experiment [1] was 3.60 µg/mL. Also, the “Relative Maximum Activity (% of hGRF)” value in experiment [1] is listed as 109%. Further, the “GH release at dosages comparable to native hGRF” value in experiment [1] was “induced GH release in dosages comparable to those for native hGRF”. In addition, the “Potency: (ED50 of hGRF)/(Dose required to give same response as ED50 of hGRF)” value in experiment [1] is listed as 82%.
As to `CC[C@H](C)[C@H](NC(=O)[C@H](C)NC(=O)[C@H](CC(=O)O)NC(=O)[C@H](C)NC(=O)[C@@H](N)Cc1ccc(O)cc1)C(=O)N[C@@H](Cc1ccccc1)C(=O)N[C@H](C(=O)N[C@@H](CC(N)=O)C(=O)N[C@@H](CO)C(=O)N[C@@H](Cc1ccc(O)cc1)C(=O)N[C@@H](CCCNC(=N)N)C(=O)N[C@@H](CCCCN)C(=O)N[C@H](C(=O)N[C@@H](CC(C)C)C(=O)NCC(=O)N[C@@H](CCC(N)=O)C(=O)N[C@@H](CC(C)C)C(=O)N[C@@H](CO)C(=O)N[C@@H](C)C(=O)N[C@@H](CCCNC(=N)N)C(=O)N[C@@H](CCCCN)C(=O)N[C@@H](CC(C)C)C(=O)N[C@@H](CC(C)C)C(=O)N[C@@H](CCC(N)=O)C(=O)N[C@@H](CC(=O)O)C(=O)N[C@H](C(=O)N[C@@H](CCSC)C(=O)N[C@@H](CO)C(=O)N[C@@H](CCCNC(=N)N)C(=O)N[C@@H](CCC(N)=O)C(=O)N[C@@H](CCC(N)=O)C(=O)NCC(=O)N[C@@H](CCC(=O)O)C(=O)N[C@@H](CO)C(=O)N[C@@H](CC(N)=O)C(=O)N[C@@H](CCC(N)=O)C(=O)N[C@@H](CCC(=O)O)C(=O)N[C@@H](CCCNC(=N)N)C(=O)NCC(=O)N[C@@H](C)C(=O)N[C@@H](CCCNC(=N)N)C(=O)N[C@@H](C)C(=O)N[C@@H](CCCNC(=N)N)C(=O)N[C@@H](CC(C)C)C(N)=O)[C@@H](C)CC)C(C)C)[C@@H](C)O` [hGRF(1-44)-NH2, hGRF(1-44)--NH2, reference compound], the “GH Released (mean ± (S.E.))” value was 2.81 (0.13) μg/mL in experiment [1] (Dose 1 × 10^-6 M); 3.17 (0.12) μg/mL in experiment [1] (Dose 1 × 10^-7 M); 3.44 (0.23) μg/mL in experiment [1] (Dose 1 × 10^-8 M); 2.84 (0.12) μg/mL in experiment [1] (Dose 1 × 10^-9 M); 1.16 (0.04) μg/mL in experiment [1] (Dose 1 × 10^-10 M); 0.73 (0.03) μg/mL in experiment [1] (Dose 1 × 10^-11 M). Besides, the “Dose Needed to Release 2.01 μg/ml of GH” value in experiment [1] stood at 0.32 nM. In experiment [1], the “Maximum GH Released” value turned out to be 3.31 µg/mL. In experiment [1], the “Relative Maximum Activity (% of hGRF)” value was 100%. In addition, the “Biological activity compared with natural hGRF(1-44)--NH2” value in experiment [1] (natural hGRF isolated from a human pancreatic tumor (Salk Institute standard)) is on record as “identical to the natural hGRF(1-44)--NH2”. In addition, the “Potency: (ED50 of hGRF)/(Dose required to give same response as ED50 of hGRF)” value in experiment [1] amounted to 100%.
For “hpGRF(1-27)--NH2 (YADAIFTNSYRKVLGQLSARKLLQDIM-NH2; UniProt P01286 32-58, looked up, fragment) [shortened GRF analog tested by Rivier et al]”, the “activity compared in vitro with the parent hpGRF(1-40)--OH” value (“activity compared in vitro” for short) with GH releasing activity was “exhibited similar activity”.
Consider “hpGRF(1-29)--NH2 (YADAIFTNSYRKVLGQLSARKLLQDIMSR-NH2; UniProt P01286 32-60, looked up, fragment) [shortened GRF analog tested by Rivier et al]”, for which, in the experiment with GH releasing activity, the “activity compared in vitro” value was “exhibited similar activity”.
Turning to “hpGRF(1-32)--NH2 (YADAIFTNSYRKVLGQLSARKLLQDIMSRQQG-NH2; UniProt P01286 32-63, looked up, fragment) [shortened GRF analog tested by Rivier et al]”, in the experiment on GH releasing activity, the “activity compared in vitro” value is “exhibited similar activity”.
As to “hpGRF(1-39)--NH2 (YADAIFTNSYRKVLGQLSARKLLQDIMSRQQGESNQERG-NH2; UniProt P01286 32-70, looked up, fragment) [shortened GRF analog tested by Rivier et al]”, in the experiment on GH releasing activity, the “activity compared in vitro” value was “exhibited similar activity”.
Turning to “hpGRF(1-40)--NH2 (YADAIFTNSYRKVLGQLSARKLLQDIMSRQQGESNQERGA-NH2; UniProt P01286 32-71, looked up, fragment) [shortened GRF analog tested by Rivier et al]”, the “activity compared in vitro” value with GH releasing activity is reported as “exhibited similar activity”.

The values above are taken from patent US4801456A, “Growth hormone-releasing factor analogs” (International Minerals & Chemical Corp., priority 1987, dated 1989).
